Reference: patent US5210193A, “Piperazine derivatives” (American Cyanamid Company, priority 1990, dated 1993)
Converted amounts (≈) assume the structure as drawn.

Legend:
Assay in all cases: in vitro antibacterial MIC, agar plate dilution
Assay type in all cases: cell-based
[1] = system: Staphylococcus aureus CMC 83-127; details: Staphylococcus aureus, CMC83127, 18 h, 35° C., read-out: MIC
Summary of the method: (§1)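 Minimal inhibitory concentrations came from agar plate dilution in Mueller-Hinton medium. Each organism was delivered at roughly 10^4 CFU by Steers replicator. Plates were read for visible growth after 18 hours at 35° C, values in mcg/ml.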

[2] = system: Streptococcus faecalis VGH 84-65; details: Enterococcus faecalis, VGH8465, 18 h, 35° C., read-out: MIC
Summary of the method: as §1

[3] = system: Enterobacter cloacae VGH 84-37; details: Enterobacter cloacae, VGH8437, 18 h, 35° C., read-out: MIC
Summary of the method: as §1

[4] = system: Escherichia coli PRNT 311; details: PRNT311, 18 hours, 35° C., read-out: MIC
Summary of the method: as §1

[5] = system: Morganella morganii CMC 84-37; details: Morganella morganii, CMC8437, 18 h, 35° C., read-out: MIC
Summary of the method: as §1

[6] = system: Streptococcus faecalis ATTC 29212; details: Enterococcus faecalis, ATTC29212, 18 hours, 35° C., read-out: MIC
Summary of the method: as §1

[7] = system: Staphylococcus epidermidis IO 83-58; details: IO8358, 18 hours, 35° C., read-out: MIC
Summary of the method: as §1

[8] = system: Escherichia coli CMC 84-11; details: Escherichia coli, CMC8411, 18 h, 35° C., read-out: MIC
Summary of the method: as §1

[9] = system: Proteus rettgeri CMC 84-41; details: Providencia rettgeri, CMC8441, 18 h, 35° C., read-out: MIC
Summary of the method: as §1

[10] = system: Pseudomonas aeruginosa LL-1244; details: Pseudomonas aeruginosa, LL1244, 18 h, 35° C., read-out: MIC
Summary of the method: as §1

[11] = system: Klebsiella pneumoniae MOR 84-4; details: Klebsiella pneumoniae, MOR844, 18 h, 35° C., read-out: MIC
Summary of the method: as §1

[12] = system: Staphylococcus aureus VGH 84-45; details: Staphylococcus aureus, VGH8445, 18 h, 35° C., read-out: MIC
Summary of the method: as §1

[13] = system: Staphylococcus epidermidis VGH 84-40; details: VGH8440, 18 hours, 35° C., read-out: MIC
Summary of the method: as §1

[14] = system: Staphylococcus aureus VGH 84-46; details: Staphylococcus aureus, VGH8446, 18 h, 35° C., read-out: MIC
Summary of the method: as §1

[15] = system: Morganella morganii VGH 84-11; details: VGH8411, 18 hours, 35° C., read-out: MIC
Summary of the method: as §1

[16] = system: Enterobacter cloacae K 84-10; details: Enterobacter cloacae, K8410, 18 h, 35° C., read-out: MIC
Summary of the method: as §1

[17] = system: Serratia marcescens F 0-35; details: Serratia marcescens, F035, 18 h, 35° C., read-out: MIC
Summary of the method: as §1

[18] = system: Enterobacter aerogenes VGH 84-36; details: Klebsiella aerogenes, VGH8436, 18 hours, 35° C., read-out: MIC
Summary of the method: as §1

[19] = system: Escherichia coli CMC 84-16; details: Escherichia coli, CMC8416, 18 h, 35° C., read-out: MIC
Summary of the method: as §1

[20] = system: Staphylococcus aureus CMC 83-128; details: CMC83128, 18 hours, 35° C., read-out: MIC
Summary of the method: as §1

[21] = system: Serratia marcescens K 84-18; details: Serratia marcescens, K8418, 18 h, 35° C., read-out: MIC
Summary of the method: as §1

Escherichia coli NAR 311 = details: NAR311, 18 hours, 35° C., read-out: MIC
Summary of the method: as §1

[22] = system: Staphylococcus aureus ATTC 29213; details: Staphylococcus aureus, ATTC29213, 18 h, 35° C., read-out: MIC
Summary of the method: as §1

[23] = system: Acinetobacter calcoaceticus MOR 84-43; details: MOR8443, 18 hours, 35° C., read-out: MIC
Summary of the method: as §1

[24] = system: Pseudomonas aeruginosa VGH 84-4; details: Pseudomonas aeruginosa, VGH844, 18 h, 35° C., read-out: MIC
Summary of the method: as §1

[25] = system: Staphylococcus epidermidis CMC 83-135; details: CMC83135, 18 hours, 35° C., read-out: MIC
Summary of the method: as §1

[26] = system: Staphylococcus aureus Smith; details: Staphylococcus aureus, 18 h, 35° C., read-out: MIC
Summary of the method: as §1

[27] = system: Escherichia coli ATCC 25922; details: Escherichia coli, ATCC25922, 18 h, 35° C., read-out: MIC
Summary of the method: as §1

[28] = system: Staphylococcus Spp saprophiticus VGH 84-50; details: 18 hours, 35° C., read-out: MIC
Summary of the method: as §1

[29] = system: Klebsiella oxytoca MOR 84-28; details: MOR8428, 18 hours, 35° C.
Summary of the method: as §1

Klebsiella pneumoniae AD = details: Klebsiella pneumoniae, 18 h, 35° C., read-out: MIC
Summary of the method: as §1

Structure (SMILES)	MIC [1] [µg/mL]	MIC [2] [µg/mL]	MIC [3] [µg/mL]	MIC [4] [µg/mL]	MIC [5] [µg/mL]	MIC [6] [µg/mL]	MIC [7] [µg/mL]	MIC [8] [µg/mL]	MIC [9] [µg/mL]	MIC [10] [µg/mL]	MIC [11] [µg/mL]	MIC [12] [µg/mL]	MIC [13] [µg/mL]	MIC [14] [µg/mL]	MIC [15] [µg/mL]	MIC [16] [µg/mL]	MIC [17] [µg/mL]	MIC [18] [µg/mL]	MIC [19] [µg/mL]	MIC [20] [µg/mL]	other results
CCn1cc(C(=O)O)c(=O)c2cc(F)c(N3CCNC(CNC)C3)cc21.Cl.Cl (centres unmarked) [Example 53, 1-Ethyl-6-fluoro-1,4-dihydro-7-[3-[(methylamino)methyl]-1-piperazinyl]-4-oxo-3-quinolinecarboxylic acid, dihydrochloride]	1	32	32	16	32	32	4	8	32	> 128	32	16	4	8	32	8	64	16	4	2	MIC [21]: 128 µg/mL; MIC (Escherichia coli NAR 311): > 128 µg/mL; MIC [22]: 16 µg/mL; MIC [23]: > 128 µg/mL; MIC [24]: > 128 µg/mL; MIC [25]: 2 µg/mL; MIC [26]: 1 µg/mL; MIC [27]: 16 µg/mL; MIC [28]: 4 µg/mL; MIC [29]: > 128 µg/mL; MIC (Klebsiella pneumoniae AD): 64 µg/mL
CCn1cc(C(=O)O)c(=O)c2cc(F)c(N3CCN(C)C(c4cc5cc(Cl)ccc5o4)C3)cc21 (centres unmarked) [Example 55, 7-[3-(5-Chloro-2-benzofuranyl)-4-methyl-1-piperazinyl]-1-ethyl-6-fluoro-1,4-dihydro-4-oxo-3-quinolinecarboxylic acid]	8 (≈ 16.5 µM)	> 256	> 256	> 256	> 256	> 256	128 (≈ 265 µM)	> 256	> 256	> 256	> 256	16 (≈ 33.1 µM)	32 (≈ 66.1 µM)	32 (≈ 66.1 µM)	> 256	> 256	> 256	> 256	> 256	16 (≈ 33.1 µM)	MIC [21]: > 256 µg/mL; MIC (Escherichia coli NAR 311): > 256 µg/mL; MIC [22]: 64 µg/mL (≈ 132 µM); MIC [23]: > 256 µg/mL; MIC [24]: > 256 µg/mL; MIC [25]: 64 µg/mL (≈ 132 µM); MIC [26]: 16 µg/mL (≈ 33.1 µM); MIC [27]: > 256 µg/mL; MIC [28]: > 256 µg/mL; MIC [29]: > 256 µg/mL; MIC (Klebsiella pneumoniae AD): > 256 µg/mL
